Reference: PMC11390321 (Cancer chemotherapy and pharmacology, 2024)
Where two headings read alike, the source gives them in different places.

What was measured:
[1] = tested on: breast cancer resistance protein (Bcrp/Abcg2); conditions: on the BBB; cited from earlier work
[2] = clinical; cited from earlier work
[3] = assay type: in vivo, BALB/c mice; conditions: for clearance: CL
[4] = BALB/c, mouse, bone marrow, iv, 20 mg/kg
[5] = BALB/c, mouse, brain, iv, 20 mg/kg
[6] = BALB/c, mouse, draining lymph node, iv, 20 mg/kg
[7] = BALB/c, mouse, esophagus, iv, 20 mg/kg
[8] = BALB/c, mouse, fat, iv, 20 mg/kg
[9] = BALB/c, mouse, heart, iv, 20 mg/kg
[10] = BALB/c, mouse, kidney, iv, 20 mg/kg
[11] = BALB/c, mouse, liver, iv, 20 mg/kg
[12] = BALB/c, mouse, lung, iv, 20 mg/kg
[13] = BALB/c, mouse, non-draining lymph node, iv, 20 mg/kg
[14] = BALB/c, mouse, plasma, iv, 20 mg/kg
[15] = BALB/c, mouse, red blood cells (RBC), iv, 20 mg/kg
[16] = BALB/c, mouse, skeletal muscle, iv, 20 mg/kg
[17] = BALB/c, mouse, small intestine, iv, 20 mg/kg
[18] = BALB/c, mouse, spinal cord, iv, 20 mg/kg
[19] = BALB/c, mouse, spleen, iv, 20 mg/kg
[20] = BALB/c, mouse, thymus, iv, 20 mg/kg
[21] = BALB/c, mouse, tumor (CT26), iv, 20 mg/kg
[22] = plasma, 20 mg/kg IV-ext, tumor-bearing mice
[23] = unchanged drug, 20 mg/kg IV-ext, tumor-bearing mice

AUC(0-inf) [3, 4]: 1110 µg·h/mL | Cmax [3, 4]: 164000 ng/mL | Kp [3, 4]: 74.5 | Tmax [3, 4]: 60 min | AUC(0-t) ([3]; BALB/c, mouse, bone marrow, iv, 20 mg/kg, AUC0-t, 20 mg/kg IV, 0–1440 min): 1060 µg·h/mL | AUC(0-inf) [3, 5]: 4.52 µg·h/mL | Cmax [3, 5]: 627 ng/mL | Kp [3, 5]: 0.297 | Tmax [3, 5]: 15 min | AUC(0-t) ([3]; BALB/c, mouse, brain, iv, 20 mg/kg, AUC0-t, 20 mg/kg IV, 0–1440 min): 4.23 µg·h/mL | AUC(0-inf) [3, 6]: 87 µg·h/mL | Cmax [3, 6]: 12900 ng/mL | Kp [3, 6]: 5.7 | Tmax [3, 6]: 60 min | AUC(0-t) ([3]; BALB/c, mouse, draining lymph node, iv, 20 mg/kg, AUC0-t, 20 mg/kg IV, 0–1440 min): 80.3 µg·h/mL | AUC(0-inf) [3, 7]: 46.7 µg·h/mL | Cmax [3, 7]: 12100 ng/mL | Kp [3, 7]: 3.07 | Tmax [3, 7]: 30 min | AUC(0-t) ([3]; BALB/c, mouse, esophagus, iv, 20 mg/kg, AUC0-t, 20 mg/kg IV, 0–1440 min): 43.6 µg·h/mL | AUC(0-inf) [3, 8]: 25.2 µg·h/mL | Cmax [3, 8]: 4280 ng/mL | Kp [3, 8]: 1.59 | Tmax [3, 8]: 5 min | AUC(0-t) ([3]; BALB/c, mouse, fat, iv, 20 mg/kg, AUC0-t, 20 mg/kg IV, 0–1440 min): 22.6 µg·h/mL | AUC(0-inf) [3, 9]: 86.5 µg·h/mL | Cmax [3, 9]: 31600 ng/mL | Kp [3, 9]: 5.64 | Tmax [3, 9]: 5 min | AUC(0-t) ([3]; BALB/c, mouse, heart, iv, 20 mg/kg, AUC0-t, 20 mg/kg IV, 0–1440 min): 81.2 µg·h/mL | AUC(0-inf) [3, 10]: 873 µg·h/mL | Cmax [3, 10]: 117000 ng/mL | Kp [3, 10]: 57.7 | Tmax [3, 10]: 5 min | AUC(0-t) ([3]; BALB/c, mouse, kidney, iv, 20 mg/kg, AUC0-t, 20 mg/kg IV, 0–1440 min): 821 µg·h/mL | AUC(0-inf) [3, 11]: 387 µg·h/mL | Cmax [3, 11]: 79800 ng/mL | Kp [3, 11]: 25.5 | Tmax [3, 11]: 5 min | AUC(0-t) ([3]; BALB/c, mouse, liver, iv, 20 mg/kg, AUC0-t, 20 mg/kg IV, 0–1440 min): 363 µg·h/mL | AUC(0-inf) [3, 12]: 216 µg·h/mL | Cmax [3, 12]: 45200 ng/mL | Kp [3, 12]: 13.9 | Tmax [3, 12]: 5 min | AUC(0-t) ([3]; BALB/c, mouse, lung, iv, 20 mg/kg, AUC0-t, 20 mg/kg IV, 0–1440 min): 198 µg·h/mL | AUC(0-inf) [3, 13]: 116 µg·h/mL | Cmax [3, 13]: 20700 ng/mL | Kp [3, 13]: 7.79 | Tmax [3, 13]: 30 min | AUC(0-t) ([3]; BALB/c, mouse, non-draining lymph node, iv, 20 mg/kg, AUC0-t, 20 mg/kg IV, 0–1440 min): 111 µg·h/mL | AUC(0-inf) [3, 14]: 15.1 µg·h/mL | Cmax [3, 14]: 13300 ng/mL | Kp [3, 14]: 1 | Tmax [3, 14]: 5 min | Vd [3, 14]: 11.7 L/kg | half-life [3, 14]: 367 min | AUC(0-t) ([3]; BALB/c, mouse, plasma, iv, 20 mg/kg, AUC0-t, 20 mg/kg IV-ext, tumor-bearing mice): 14.2 µg·h/mL | AUC(0-t) ([3]; BALB/c, mouse, plasma, iv, 20 mg/kg, AUC0-t, 20 mg/kg IV, 0–1440 min): 14.2 µg·h/mL | AUC(0-t) ([3]; BALB/c, mouse, plasma, iv, 20 mg/kg, AUC0–360, plasma, 20 mg/kg IV-ext, tumor-bearing mice): 9.85 µg·h/mL | clearance ([3]; BALB/c, mouse, plasma, iv, 20 mg/kg, calculated using AUC0-∞, 20 mg/kg IV-ext, tumor-bearing mice): 22.1 mL/min/kg | clearance ([3]; BALB/c, mouse, plasma, iv, 20 mg/kg, calculated using AUC0–360, 20 mg/kg IV-ext, tumor-bearing mice): 33.8 mL/min/kg | AUC(0-inf) [3, 15]: 5.87 µg·h/mL | Cmax [3, 15]: 1690 ng/mL | Kp [3, 15]: 0.389 | Tmax [3, 15]: 5 min | AUC(0-t) ([3]; BALB/c, mouse, red blood cells (RBC), iv, 20 mg/kg, AUC0-t, RBC, 20 mg/kg IV, 0–1440 min): 5.53 µg·h/mL | AUC(0-inf) [3, 16]: 41.7 µg·h/mL | Cmax [3, 16]: 9950 ng/mL | Kp [3, 16]: 2.77 | Tmax [3, 16]: 15 min | AUC(0-t) ([3]; BALB/c, mouse, skeletal muscle, iv, 20 mg/kg, AUC0-t, Sk. Muscle, 20 mg/kg IV, 0–1440 min): 39.4 µg·h/mL | AUC(0-inf) [3, 17]: 209 µg·h/mL | Cmax [3, 17]: 31300 ng/mL | Kp [3, 17]: 12.7 | Tmax [3, 17]: 15 min | AUC(0-t) ([3]; BALB/c, mouse, small intestine, iv, 20 mg/kg, AUC0-t, 20 mg/kg IV, 0–1440 min): 181 µg·h/mL | AUC(0-inf) [3, 18]: 2.15 µg·h/mL | Cmax [3, 18]: 307 ng/mL | Kp [3, 18]: 0.14 | Tmax [3, 18]: 15 min | AUC(0-t) ([3]; BALB/c, mouse, spinal cord, iv, 20 mg/kg, AUC0-t, 20 mg/kg IV, 0–1440 min): 2 µg·h/mL | AUC(0-inf) [3, 19]: 306 µg·h/mL | Cmax [3, 19]: 39000 ng/mL | Kp [3, 19]: 20.6 | Tmax [3, 19]: 120 min | AUC(0-t) ([3]; BALB/c, mouse, spleen, iv, 20 mg/kg, AUC0-t, 20 mg/kg IV, 0–1440 min): 293 µg·h/mL | AUC(0-inf) [3, 20]: 92.9 µg·h/mL | Cmax [3, 20]: 13500 ng/mL | Kp [3, 20]: 5.94 | Tmax [3, 20]: 30 min | AUC(0-t) ([3]; BALB/c, mouse, thymus, iv, 20 mg/kg, AUC0-t, 20 mg/kg IV, 0–1440 min): 84.5 µg·h/mL | Kp ([3]; BALB/c, mouse, tumor (CT26), intravenous, 20 mg/kg): 8.68 | AUC(0-inf) [3, 21]: 140 µg·h/mL | Cmax [3, 21]: 13100 ng/mL | Tmax [3, 21]: 60 min | AUC(0-t) ([3]; BALB/c, mouse, tumor (CT26), iv, 20 mg/kg, AUC0-t, 20 mg/kg IV, 0–1440 min): 124 µg·h/mL | Cmax ([3]; Plasma, 20 mg/kg IV, observed, mean (SD)): 13.3 (4.91) μg/mL | AUC0-∞ ([3]; plasma, 20 mg/kg IV): 906 µg·min/mL | Tmax ([3]; plasma, 20 mg/kg IV): 5 min | AUC0-t/dose [3, 22]: 42.7 | AUC0-∞ /dose [3, 22]: 45.3 | AUC0–360/dose [3, 22]: 29.6 | AUCextrap [3, 22]: 5.75% | Tlast [3, 22]: 1440 min | 0–24 h feces [3, 23]: 4.13 % dose | 0–24 h urine [3, 23]: 48.4 % dose
SMILES: CNCc1ccc(-c2cc(-c3nc(-c4ccc(S(=O)(=O)C(C)C)cc4)cnc3N)on2)cc1 [berzosertib]
efflux transporter substrate [1]: substrate | clinically associated toxicities [2]: bone marrow toxicities including neutropenia, thrombocytopenia, leukocytopenia, lymphocytopenia, and anemia
